Experimental findings from patent publication US20060241296A1, “Vanilloid receptor ligands and their use in treatments” (priority 2005, published 2006) are described below.

As usually defined, the melting point is the temperature of the solid-liquid transition.

Regarding `O[C@@H]1Cc2cccc(Nc3cc(-c4ccc(C(F)(F)F)cc4)ncn3)c2C[C@H]1O` (racemic) [Example 28, (±)-5-(6-(4-(Trifluoromethyl)phenyl)pyrimidin-4-ylamino)-1,2,3,4-tetrahydronaphthalene-2,3-trans-diol], the melting point was in the range of 286 to 289 °C.

Compound `O[C@@H]1Cc2c(cccc2Nc2cc(-c3ccc(C(F)(F)F)cc3)ncn2)C[C@@H]1O` (racemic) [Example 30, (±)-5-(6-(4-(Trifluoromethyl)phenyl)pyrimidin-4-ylamino)-1,2,3,4-tetrahydronaphthalene-2,3-cis-diol] returned a melting point of 231 to 232 °C.

On to `Nc1cc(C(F)(F)F)ccc1-c1cc(Nc2cccc3c2C[C@@H](O)[C@@H](O)C3)ncn1` (racemic) [Example 31, (±)-5-(6-(2-Amino-4-(trifluoromethyl)phenyl)pyrimidin-4-ylamino)-1,2,3,4-tetrahydronaphthalene-2,3-cis-diol], for which the melting point was 233 to 234 °C.

On to `OC1CCc2cccc(Nc3cc(-c4ccc(C(F)(F)F)cc4)ncn3)c2C1` (centres unmarked) [Example 1, 8-(6-(4-(Trifluoromethyl)phenyl)pyrimidin-4-ylamino)-1,2,3,4-tetrahydro-naphthalen-2-ol], for which the melting point is 178 to 179 °C.

Take `OC1CCc2c(Br)ccc(Nc3cc(-c4ccc(C(F)(F)F)cc4)ncn3)c2C1` (centres unmarked) [Example 37, 5-Bromo-8-(6-(4-(trifluoromethyl)phenyl)pyrimidin-4-ylamino)-1,2,3,4-tetrahydronaphthalen-2-ol]: the melting point is 192 °C.
